Test results reported in US20130165343A1, “IDENTIFICATION OF MULTIGENE BIOMARKERS” (AVEO Pharmaceuticals, Inc., priority 2011, published 2013).

Columns and labels:
[1] = system: BH murine tumor archive (HER2-dependent murine breast tumors); assay: Tumor response to rapamycin in subcutaneously transplanted BH archive murine breast tumors; assay type: in vivo, mouse; details: out of 66 tumors; 0.1 mg/kg daily, intraperitoneal injection
Excerpt: (§1) A genetically diverse population of more than 100 murine breast tumors (BH archive) was used to identify tumors that are sensitive to a drug of interest (responders) and tumors that are resistant to the same drug of interest (non-responders). The BH archive was established by in vivo propagation and cryopreservation of primary tumor material from more than 100 spontaneous murine breast tumors derived from engineered chimeric mice that develop HER2-dependent, inducible spontaneous breast tumors.
The BH archive of more than 100 tumors was produced essentially as follows. Primary tumor cells were isolated from the chimeric animals by physical disruption of the tumors using cell strainers. Typically 1×10^5 cells were mixed with Matrigel (50:50 by vol.) and injected subcutaneously into female NCr nu/nu mice. When these tumors grew to approximately 500 mm3, which typically required 2 to 4 weeks, they were collected for one further round of in vivo propagation, after which tumor material was cryopreserved in liquid nitrogen. […]
Tumors from the BH murine tumor archive were tested for sensitivity to treatment with rapamycin (also known as sirolimus, or RAPAMUNE®). […] Tumors were measured twice per week by a caliper, and tumor volume was calculated.

[2] = system: BH murine tumor archive (HER2-dependent murine breast tumors); assay: Tumor response to tivozanib in subcutaneously transplanted BH archive murine breast tumors; assay type: in vivo, mouse
Excerpt: as §1
The BH archive of more than 100 tumors was produced essentially as follows. Primary tumor cells were isolated from the chimeric animals by physical disruption of the tumors using cell strainers. Typically 1×10^5 cells were mixed with Matrigel (50:50 by vol.) and injected subcutaneously into female NCr nu/nu mice. When these tumors grew to approximately 500 mm3, which typically required 2 to 4 weeks, they were collected for one further round of in vivo propagation, after which tumor material was cryopreserved in liquid nitrogen. To characterize the propagated and archived tumors, 1×10^5 cells from each individual tumor line were thawed and injected subcutaneously in BALB/c nude mice. When the tumors reached a mean size of 500 to 800 mm3, animals were sacrificed and tumors were surgically removed for further analysis.
Tumors in the BH murine tumor archive were tested for sensitivity to treatment with tivozanib. Evaluation of tumor response to this drug treatment was performed essentially as follows. Subcutaneously transplanted tumors were established by injecting physically disrupted tumor cells (mixed with Matrigel) into 6 week-old female BALB/c nude mice. When the tumors reached approximately 100-200 mm3, 20 tumor-bearing mice were randomized into two groups. Group 1 received vehicle. Group 2 received tivozanib at 5 mg/kg daily by oral gavage. Tumors were measured twice per week by a caliper, and tumor volume was calculated.
The variation in response was expected, because the mouse model tumors had been propagated from spontaneously arising tumors, and were therefore expected to contain differing sets of secondary de novo mutations that contributed to tumorogenesis. […] Tivozanib-sensitive tumors and tivozanib-resistant tumors were identified (classified) on the basis of tumor growth inhibition, histopathology and IHC (CD31).

[3] = out of 25 tumors, 5 mg/kg tivozanib, classified by tumor growth inhibition, histopathology and IHC (CD31)

Row | Structure (SMILES) | number of rapamycin-resistant tumors (50% tumor growth inhibition or less) [1] | number of rapamycin-sensitive tumors (more than 50% tumor growth inhibition) [1] | tumor progression (by caliper measurement) in tivozanib-sensitive tumors ([2]; 5 mg/kg daily by oral gavage, BALB/c nude mice, tivozanib-sensitive tumors) | tumor killing in tivozanib-sensitive tumors ([2]; 5 mg/kg, tivozanib-sensitive tumors, histopathology) | number of tumors actually resistant [2, 3] | number of tumors actually sensitive [2, 3]
1 | CO[C@H]1C[C@@H]2CC[C@@H](C)[C@@](O)(O2)C(=O)C(=O)N2CCCC[C@H]2C(=O)O[C@H]([C@H](C)C[C@@H]2CC[C@@H](O)[C@H](OC)C2)CC(=O)[C@H](C)/C=C(\C)[C@@H](O)[C@@H](OC)C(=O)[C@H](C)C[C@H](C)/C=C/C=C/C=C/1C [rapamycin] | 25 | 41 |  |  |  | 
2 | COc1cc2nccc(Oc3ccc(NC(=O)Nc4cc(C)on4)c(Cl)c3)c2cc1OC [tivozanib] |  |  | no tumor progression | close to complete tumor killing, except for the peripheries | 16 | 9
